Where two headings read alike, the source gives them in different places.
Assays:
MMP-9 = experiment: Western blot, MMP-9 expression in breast cancer cells; format: cell-based, human; conditions: MDA-MB-231 and MCF-7 cells, 24 h
Description: (§1) To determine the effect of novel triarylethylene derivatives on proteins involved in metastasis, and adhesion, whole-cell extracts were prepared by subjecting cells to lysis in RIPA buffer supplemented with protease and phosphatase inhibitor cocktails using previously described methods (Pandey et al., 2014, Exp. Hematol. 42:883-896). Lysates were spun at 15,000 rpm for 10 minutes to remove insoluble material. Supernatant were collected and kept at −80° C. Lysates were resolved by SDS-PAGE. After electrophoresis, the proteins were electro-transferred to PVDF membranes, blotted with the relevant antibodies, and detected by enhanced chemo-luminescence reagent.

c-Myc = experiment: Western blot, c-Myc expression in breast cancer cells; format: cell-based, human; conditions: MDA-MB-231 and MCF-7 cells, 24 h
Description: as §1

caveolin = experiment: Western blot, caveolin expression in breast cancer cells; format: cell-based, human; conditions: MDA-MB-231 and MCF-7 cells, 24 h
Description: as §1

MDA-MB-231 cells [1] = experiment: In vitro Matrigel invasion assay; format: cell-based, human; conditions: dose dependent
Description: Human breast cancer MDA-MB-231 cells were serum starved for 24 h in serum-free medium (DMEM without FBS). After starving 50,000 cells were transferred onto Matrigel pre-coated invasion inserts (upper chamber, BD Biocoat). Lower chambers of plate were filled with complete medium (DMEM and 10% FBS) and cells were allowed to migrate under chemotaxis. […] After incubation cells that had invaded to the opposite side of the Transwell membrane were washed with PBS and fixed in chilled 70% ethanol for 15 min and air dried. Cells were stained with 0.5% crystal violet for 10 min. Cells were washed, dried, and images were captured at 40× magnification.

[2] = tested on: MCF-7 (ER-positive) human breast cancer cell line; experiment: MTT cell viability assay, MCF-7 cells; conditions: for anticancer activity in initial screening: 0.5-25 μM, 48 h (FIG. 3); for times more cytotoxic than Tamoxifen / times more effective than Ospemifene: 96 h time point; for IC50: Homo sapiens, read-out: MCF-7 (ER positive) IC50
Description: (§3) An MTT solution was added to each well and incubated for 3 h at 37° C. After 3 h, DMSO was added and the optical density was measured at 570 nm using a 96-well multiscanner (Dynex Technologies, MRX Revelation; Chantilly, Va., USA). Backgrounds were subtracted at 630 nm. IC50 values were calculated by non-linear regression analysis using Prism software.
(§4) The effects of novel triarylethylene derivatives on the cell viability were determined by the MTT uptake method using previously described methods (Kaur et al., 2014, Eur. J. Med. Chem. 86:211-218). Briefly, 3000 cells were incubated with various concentrations of compounds in triplicate in a 96-well plate for 72 h at 37° C. An MTT solution was added to each well and incubated for 3 h at 37° C. After 3 h, DMSO was added and the optical density was measured at 570 nm using a 96-well multiscanner (Dynex Technologies, MRX Revelation; Chantilly, Va., USA). Backgrounds were subtracted at 630 nm. IC50 values were calculated by non-linear regression analysis using Prism software.

[3] = tested on: MDA-MB-231 (ER-negative) human breast cancer cell line; experiment: MTT cell viability assay, MDA-MB-231 cells; conditions: for anticancer activity in initial screening: 0.5-25 μM, 48 h (FIG. 3); for times more cytotoxic than Tamoxifen / times more effective than Ospemifene: 96 h time point; for IC50: Homo sapiens, read-out: MDA-MB-231 (ER− negative) IC50
Description: as §3, §4

MCF-7 cells = experiment: Live/Dead assay by flow cytometry, MCF-7 cells; format: cell-based, human; conditions: 24 h
Text: (§2) To measure cell death, the Live/Dead assay (Life technologies, USA) was used, which determines intracellular esterase activity and plasma membrane integrity (Pandey et al., 2013, PloS One 8:e78570). Nonfluorescent polyanionic dye calcein AM is retained by live cells and by enzymatic conversion (esterase) it becomes fluorescent, produces intense green fluorescence in live cells. Ethidium homodimer enters cells with damaged membranes and binds to nucleic acids, thereby producing a bright red fluorescence in dead cells. […] Cells were stained with the Live and Dead reagent (5 μM ethidium homodimer and 5 μM calcein-AM) and analyzed by flow cytometry according to the manufacture's protocols.

MDA-MB-231 cells [4] = experiment: Live/Dead assay by flow cytometry, MDA-MB-231 cells; format: cell-based, human; conditions: 24 h, 10 μM
Text: as §2

[5] = tested on: normal mouse embryonic fibroblast (MEF) cells; experiment: MTT cell viability assay, normal MEF cells; conditions: 48 h
Description: as §3

[6] = MTT, 72 h, versus Ospemifene and Tamoxifen

| Molecule | expression of MMP-9 (MMP-9) | expression of c-Myc (c-Myc) | expression of caveolin (caveolin) | effect on invasion of ER-negative cells (MDA-MB-231 cells [1]) | cytotoxic activity [2, 6] | cytotoxic activity [3, 6] | cells killed (MCF-7 cells; 10 μM) [%] | cells killed (MDA-MB-231 cells [4]) [%] | anticancer activity in initial screening [2] | times more cytotoxic than Tamoxifen [2] | times more effective than Ospemifene [2] | IC50 ([2]; MCF7, 48 h) [µM] | IC50 ([2]; MCF7, 96 h) [µM] | anticancer activity in initial screening [3] | times more cytotoxic than Tamoxifen [3] | times more effective than Ospemifene [3] | IC50 ([3]; MDA-MB-231, 48 h) [µM] | IC50 ([3]; MDA-MB-231, 96 h) [µM] | toxicity to normal MEF cells [5] | dead cells (MCF-7 cells; increasing amount of compound) |
| --- | --- | --- | --- | --- | --- | --- | --- | --- | --- | --- | --- | --- | --- | --- | --- | --- | --- | --- | --- | --- |
| (Z)-[4-azido-1-{4-(2-azidoethoxy) phenyl}but-1-ene-1,2-diyl]dibenzene [Compound 5] | inhibited the expression | inhibited the expression | inhibited the expression | suppressed the invasion | much more effective than the standards | much more effective than the standards | – | – | – | – | – | – | – | – | – | – | – | – | – | – |
| NCCOc1ccc(/C(=C(/CCN)c2ccccc2)c2ccccc2)cc1 [Compound 7, (Z)-4-{4-(2-aminoethoxy)phenyl}-3,4-diphenylbut-3-en-1-amine] | – | – | – | – | – | – | 70 | 70 | more potent than Ospemifene | at least five | about five | 23.6 | 11.2 | more potent than Ospemifene | at least five | eight | 17.1 | 13.4 | non-toxic | – |
| NCC/C(=C(\c1ccccc1)c1ccc(OCCO)cc1)c1ccccc1 [Compound 6, (Z)-2-{4-(4-amino-1,2-diphenylbut-1-enyl)phenoxy}ethanol] | – | – | – | – | – | – | – | – | more potent than Ospemifene | at least five | about five | 15.9 | 12.4 | more potent than Ospemifene | at least five | eight | 25 | 14.5 | non-toxic | 50-70% |

Reference: patent US20170217914A1, “Novel Triarylethylene Compounds and Methods Using Same” (The Penn State Research Foundation, priority 2014, published 2017)
